Assay results from patent US20250268895A1, “Crystalline Forms of a BTK Inhibitor” (NOVARTIS AG, priority 2019, published 2025).

Assays:
Type in all cases: physicochemical
[1] = Granulation simulation experiments; conditions: water, ethanol, 2-propanol, Acetone, benzylalcohol; dried under vacuum
Procedure: Granulating solvents were added drop wise to polymorphic Form A until solid is wetted sufficiently. The suspension was stirred by Vortex between each addition. The suspension was dried under vacuum. The remaining solid form was isolated and degree of crystallinity was analyzed by XRPD and/or DSC. The tested Granulating solvents were water, ethanol, 2-propanol, Acetone, benzylalcohol.

[2] = Stability under compression; conditions: 5 minutes at 10 tons, hydraulic press
Procedure: 100-300 mg of polymorphic Form A was compressed for 5 minutes at 10 tons with a hydraulic press (diameter of the tablets 13 mm). The sample was then analyzed by XRPD and DSC to check for any occurring polymorphic change.

[3] = Physico-chemical stability under stress conditions (HR-XRPD, TGMS, HPLC assay); conditions: for XRPD pattern after stress conditions: all three test conditions (80° C. 1 month; 80° C./75% RH 1 month; 100° C. 3 days)
Procedure: Modifications A, B and C were subjected to the following stress conditions: • 80° C. in closed vials for 1 month; • 80° C./75% RH in open vials for 1 month; • 100° C. in closed vials for 3 days;
Afterwards, the solids were analyzed by HR-XRPD, TGMS and HPLC assay to evaluate potential solid phase change, loss on drying and chemical purity.
Upon completion of the stability test, all solids were analyzed by HR-XRPD, TGMS and HPLC assay.
Auto sampler temp.: 15° C.
Column: Waters Sunfire C18 (100×4.6 mm; 3.5 μm).
Gradient: Mobile phase A: 0.1% TFA in Water
Mobile phase B: 0.1% TFA in Acetonitrile

[4] = Dynamic vapor sorption (DVS); conditions: for DVS highest change in mass: 95% RH
[5] = Solvent equilibration of Modification A (stability in solvent, HT-XRPD)
Procedure: (§1) Suspensions of Modification A were prepared in 23 selected solvents and let to equilibrate at room temperature (RT) for 4 weeks and at 50° C. for 2 weeks. Upon completion of the equilibration time, the solids were separated from the liquid phases, dried at ambient conditions and under vacuum (5 mbar/50° C.), and analyzed by HT-XRPD.
When the suspensions dissolved, the solvent was removed by evaporation under vacuum (initially at 200 mbar/RT, then at 5 mbar/50° C.). The liquid phases were also evaporated under the same conditions. Residual solids were analyzed by HT-XRPD.

[6] = Moisture uptake at 80% and 92% RH (HT-XRPD, TGMS); conditions: 25° C., 24 hours
Procedure: The moisture sorption of Modification A was evaluated by exposing the solid material to 80% and 92% RH at 25° C. for 24 hours. Afterwards, the solids were analyzed by HT-XRPD to evaluate any change in crystalline phase, and by TGMS to determine the water uptake. […] Therefore, Modification A could be considered non-hygroscopic.

[7] = Solvent equilibration of Modifications B and C (stability in solvent, HT-XRPD)
Procedure: as §1, with “Modifications B and C” for “Modification A”, “15” for “23”, “RT” for “room temperature (RT)”, “2” for “4”, “1 week.” for “2 weeks.”
When the suspensions dissolved, the solvent was removed by evaporation under vacuum (initially 200 mbar/RT, then 5 mbar/50° C.). The liquid phases were also evaporated under the same conditions. Residual solids were analyzed by HT-XRPD.

[8] = Conversion at room temperature monitored by HR-XRPD; conditions: left at room temperature
Description: Modification C (Example 2) was left at room temperature and the conversion into Modification B was monitored by HR-XRPD and it was complete after 5 days.

[9] = 80° C./75% RH, 1 month, open vial
[10] = Dichloromethane, 50° C., 1 week

For `C=CC(=O)N(C)CCOc1c(N)ncnc1-c1cc(F)cc(NC(=O)c2ccc(C3CC3)cc2F)c1C` [Modification A, N-(3-(6-Amino-5-(2-(N-methylacrylamido)ethoxy)pyrimidin-4-yl)-5-fluoro-2-methylphenyl)-4-cyclopropyl-2-fluorobenzamide], the “Crystallinity (XRPD and/or DSC) after granulation simulation” value [1] was “No change of crystallinity”, the “Polymorphic change (XRPD and DSC) after compression” value [2] was “no change to the material” and the Loss on drying ([3]; 80° C., 1 month, closed vial) was 0.003%. For the same compound, the Loss on drying [3, 9] was 0.003%, the Loss on drying ([3]; 100° C., 3 days, closed vial) was 0.003% and the “XRPD pattern after stress conditions” value [3] was “unchanged”. For the same compound, the “Solid recovered after DVS measurements” value ([4]; 25° and 40° C.) was “still Modification A”, the “DVS water vapor uptake” value ([4]; 25° and 40° C., RH profile 40-0-95-0-95-40%) was “did not show significant water vapor uptake” and the “DVS highest change in mass” value ([4]; 25° C.) was 0.4%. For the same compound, the “DVS highest change in mass” value ([4]; 40° C.) was 0.3%, the “HT-XRPD Evap. ML” value ([5]; Acetone, 50° C., 2 weeks) was “A (l.y.)” and the “HT-XRPD Evap. ML” value ([5]; Acetonitrile, 50° C., 2 weeks) was “A (l.y.)”. For the same compound, the “HT-XRPD Evap. ML” value ([5]; Anisole, 50° C., 2 weeks) was “A (l.y.)”, the “HT-XRPD Evap. ML” value ([5]; Chloroform, 50° C., 2 weeks) was “A + B” and the “HT-XRPD Vacuum dried” value ([5]; DCM, RT, 4 weeks) was “B + C”. The “HT-XRPD Evap. ML” value ([5]; Isopropyl acetate, 50° C., 2 weeks) was “A (l.y.)”, the “HT-XRPD Evap. ML” value ([5]; MeOH, RT, 4 weeks) was “A (l.y.)” and the “HT-XRPD Evap. ML” value ([5]; MeOH/Acetone 50/50, RT, 4 weeks) was “A (l.y.)”. The “HT-XRPD Evap. ML” value ([5]; MeOH/DCM 50/50, RT, 4 weeks) was “B (l.y.)”, the “HT-XRPD Vacuum dried” value ([5]; MeOH/DCM 50/50, RT, 4 weeks) was “B + C” and the “HT-XRPD Evap. ML” value ([5]; Nitromethane, 50° C., 2 weeks) was “A (l.y.)”. The “HT-XRPD Evap. ML” value ([5]; Water, 50° C., 2 weeks) was “A (l.y.)”, the “TGMS mass loss after exposure to humidity” value ([6]; 80% RH) was 0.2% and the Hygroscopicity ([6]; 80% and 92% RH) was “non-hygroscopic”. For the same compound, the “Physical stability (HT-XRPD) after exposure to humidity” value ([6]; 80 and 92% RH) was “physically stable” and the “TGMS mass loss after exposure to humidity” value ([6]; 92% RH) was 0.2%.
For `C=CC(=O)N(C)CCOc1c(N)ncnc1-c1cc(F)cc(NC(=O)c2ccc(C3CC3)cc2F)c1C` [Modification C, N-(3-(6-Amino-5-(2-(N-methylacrylamido)ethoxy)pyrimidin-4-yl)-5-fluoro-2-methylphenyl)-4-cyclopropyl-2-fluorobenzamide], the “HT-XRPD Evap. ML” value ([7]; 2-Methyl-2-butanol, 50° C., 1 week) was “A (l.y.)”, the “HT-XRPD Evap. ML” value ([7]; Acetone, 50° C., 1 week) was “A (l.y.)” and the “HT-XRPD Evap. ML” value ([7]; Acetonitrile, 50° C., 1 week) was “A (l.y.)”. The “HT-XRPD Evap. ML” value ([7]; Anisole, RT, 2 weeks) was “A (l.y.)”, the “HT-XRPD Ambient Dried” value ([7]; Chloroform, RT, 2 weeks) was “C + SC” and the “HT-XRPD Evap. ML” value ([7]; Chloroform, RT, 2 weeks) was “C + SC”. For the same compound, the “HT-XRPD Evap. ML” value ([7]; Cyclopentanone, RT, 2 weeks) was “A (l.y)”, the “HT-XRPD Evap. ML” value [7, 10] was “C (l.y.)” and the “HT-XRPD Vacuum dried” value ([7]; Dichloromethane, RT, 2 weeks) was “B + C”. For the same compound, the “HT-XRPD Evap. ML” value ([7]; Ethanol, 50° C., 1 week) was “A (l.y.)”, the “HT-XRPD Evap. ML” value ([7]; Ethanol, RT, 2 weeks) was “A (l.y.)” and the “HT-XRPD Evap. ML” value ([7]; Isopropyl acetate, RT, 2 weeks) was “A (l.y.)”. The “HT-XRPD Evap. ML” value ([7]; Methanol, RT, 2 weeks) was “A (l.y.)”, the “HT-XRPD Evap. ML” value ([7]; Nitromethane, 50° C., 1 week) was “A (l.y.)” and the “HT-XRPD Evap. ML” value ([7]; Nitromethane, RT, 2 weeks) was “A (l.y.)”. For the same compound, the “HT-XRPD Evap. ML” value ([7]; Water, RT, 2 weeks) was “A (l.y.)”, the Loss on drying ([3]; 80° C., 1 month, closed vial) was 0.007% and the Loss on drying [3, 9] was 0.006%. For the same compound, the Loss on drying ([3]; 100° C., 3 days, closed vial) was 0.003%, the “XRPD pattern after stress conditions” value [3] was “converted to Modification B” and the “DVS water vapor uptake” value ([4]; Modifications B and C) was “did not show significant water vapor uptake”. For the same compound, the “XRPD of solid recovered after DVS measurement” value ([4]; Modifications B and C, 25° C.) was “mixture of Modifications B and C” and the “Time to complete conversion into Modification B” value [8] was 5 days.
In the case of `C=CC(=O)N(C)CCOc1c(N)ncnc1-c1cc(F)cc(NC(=O)c2ccc(C3CC3)cc2F)c1C` [Modification B, N-(3-(6-Amino-5-(2-(N-methylacrylamido)ethoxy)pyrimidin-4-yl)-5-fluoro-2-methylphenyl)-4-cyclopropyl-2-fluorobenzamide], the “HT-XRPD Evap. ML” value ([7]; Acetonitrile, 50° C., 1 week) is reported as “A (l.y.)”, the “HT-XRPD Evap. ML” value ([7]; Anisole, RT, 2 weeks) is reported as “A (l.y.)” and the “HT-XRPD Ambient Dried” value ([7]; Chloroform, RT, 2 weeks) is reported as “A (l.y)”. For the same compound, the “HT-XRPD Vacuum dried” value ([7]; Chloroform, RT, 2 weeks) was “(l.c.)”, the “HT-XRPD Evap. ML” value [7, 10] was “B + C” and the “HT-XRPD Vacuum dried” value [7, 10] was “B + C”. For the same compound, the “HT-XRPD Ambient Dried” value ([7]; Dichloromethane, RT, 2 weeks) was “C (l.c.)”, the “HT-XRPD Evap. ML” value ([7]; Dichloromethane, RT, 2 weeks) was “B + SB (l.y.)” and the “HT-XRPD Vacuum dried” value ([7]; Dichloromethane, RT, 2 weeks) was “B + C”. For the same compound, the “HT-XRPD Evap. ML” value ([7]; Ethanol, 50° C., 1 week) was “A (l.y.)”, the “HT-XRPD Evap. ML” value ([7]; Isopropyl acetate, 50° C., 1 week) was “A (l.y.)” and the “HT-XRPD Evap. ML” value ([7]; Nitromethane, RT, 2 weeks) was “A (l.y.)”. It also gave a Loss on drying ([3]; 80° C., 1 month, closed vial) of 0.009%, a Loss on drying [3, 9] of 0.004% and a Loss on drying ([3]; 100° C., 3 days, closed vial) of 0.004%. The “XRPD pattern after stress conditions” value [3] was “unchanged”, the “DVS water vapor uptake” value ([4]; Modifications B and C) was “did not show significant water vapor uptake” and the “XRPD of solid recovered after DVS measurement” value ([4]; Modifications B and C, 25° C.) was “unchanged”.
